Experimental data: ChEMBL document CHEMBL4052745 (Bioorg Med Chem, 2017)
Values after ≈ are worked out from the molar mass of the structure shown.

Tests used:
[1] = Cytotoxicity against mouse RAW264.7 cells after 4 hrs by MTT assay; assay type: cell-based; details: read-out: TD50
Bacillus anthracis = assay: Bactericidal activity against Bacillus anthracis; assay type: functional

| Structure (SMILES) | CC50 at 4 h [1] [µg/mL] | EC50 (Bacillus anthracis) [µg/mL] |
| --- | --- | --- |
| CC(C)NC(=O)N[C@H](CNC(=O)N[C@@H](CCCCN)CNC(=O)N[C@H](CNC(=O)N[C@H](CNC(=O)N[C@@H](CCCCN)CNC(=O)N[C@H](CNC(=O)N[C@@H](CCCCN)CNC(=O)N[C@H](CNC(N)=S)C(C)C)Cc1c[nH]c2ccccc12)C(C)C)Cc1c[nH]c2ccccc12)C(C)C | 21 (≈ 14.9 µM) |  |
| CC(C)NC(=O)N[C@H](CNC(=O)N[C@@H](CCCCN)CNC(=O)N[C@H](CNC(=O)N[C@H](CNC(=O)N[C@@H](CCCCN)CNC(=O)N[C@H](CNC(=O)N[C@@H](CCCCN)CNC(=N)N[C@H](CCC(N)=O)C(C)C)Cc1c[nH]c2ccccc12)C(C)C)Cc1c[nH]c2ccccc12)C(C)C | 15 (≈ 10.8 µM) |  |
| CC(C)NC(=O)N[C@H](CNC(=O)N[C@@H](CCCCN)CNC(=O)N[C@H](CNC(=O)N[C@H](CCNC(=O)N[C@@H](CCCCN)CNC(=O)N[C@H](CNC(=O)N[C@@H](CCCCN)CNC(=O)N[C@H](CCC(N)=O)C(C)C)Cc1c[nH]c2ccccc12)C(C)C)Cc1c[nH]c2ccccc12)C(C)C |  | 7 to 10 (≈ 4.99 to 7.13 µM) |
| CC(C)NC(=O)N[C@H](CNC(=S)N[C@@H](CCCCN)CNC(=O)N[C@H](CNC(=O)N[C@H](CNC(=O)N[C@@H](CCCCN)CNC(=O)N[C@H](CNC(=O)N[C@@H](CCCCN)CNC(=O)N[C@H](CNC(N)=O)C(C)C)Cc1c[nH]c2ccccc12)C(C)C)Cc1c[nH]c2ccccc12)C(C)C | 26 (≈ 18.5 µM) |  |
| CC(C)NC(=O)N[C@H](CNC(=O)N[C@@H](CCCCN)CNC(=O)N[C@H](CNC(=O)N[C@H](CNC(=O)N[C@@H](CCCCN)CNC(=O)N[C@H](CNC(=O)N[C@@H](CCCCN)CNC(=S)N[C@H](CCC(N)=O)C(C)C)Cc1c[nH]c2ccccc12)C(C)C)Cc1c[nH]c2ccccc12)C(C)C | 20.5 (≈ 14.6 µM) |  |
| CC(C)NC(=O)N[C@H](CNC(=O)N[C@@H](CCCCN)CNC(=O)N[C@H](CNC(=O)N[C@H](CNC(=S)N[C@@H](CCCCN)CNC(=O)N[C@H](CNC(=O)N[C@@H](CCCCN)CNC(=O)N[C@H](CNC(N)=O)C(C)C)Cc1c[nH]c2ccccc12)C(C)C)Cc1c[nH]c2ccccc12)C(C)C | 28 (≈ 19.9 µM) |  |
